How the values were obtained:
KRAS G12D = KRAS G12D (Homo sapiens, UniProt P01116, G12D); assay: GDP-GTP exchange assay (bodipy-GDP/GppNHp, SOS1), KRAS G12D; assay type: biochemical; conditions: bodipy-loaded KRAS G12D 2.5 nM, 4 h pre-incubation; value for the most potent isomer quoted for certain compounds; read-out: G12D (KRAS G12D exchange assay IC50)
KRAS G12V = KRAS G12V (Homo sapiens, UniProt P01116, G12V); assay: GDP-GTP exchange assay (bodipy-GDP/GppNHp, SOS1), KRAS G12V; assay type: biochemical; conditions: KRAS G12V mutant; value for the most potent isomer quoted for certain compounds; read-out: G12V (KRAS G12V exchange assay IC50)
Chain of KRAS G12V (P01116 1-188 isoform P01116-2 G12V): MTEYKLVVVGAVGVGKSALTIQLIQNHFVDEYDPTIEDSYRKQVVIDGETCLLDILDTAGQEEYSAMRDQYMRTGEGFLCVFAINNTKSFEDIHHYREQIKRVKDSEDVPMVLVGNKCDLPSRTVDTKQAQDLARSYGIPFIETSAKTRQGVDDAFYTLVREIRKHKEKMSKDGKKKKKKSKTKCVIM

Chain of KRAS G12D (P01116 1-188 isoform P01116-2 G12D): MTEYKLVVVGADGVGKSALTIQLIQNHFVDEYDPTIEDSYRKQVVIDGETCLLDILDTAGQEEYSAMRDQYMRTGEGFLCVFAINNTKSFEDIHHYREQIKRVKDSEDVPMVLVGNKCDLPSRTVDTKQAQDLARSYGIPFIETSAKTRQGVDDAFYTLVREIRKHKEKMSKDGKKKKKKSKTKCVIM

Compound	IC50 (KRAS G12D)	IC50 (KRAS G12V)
Cc1nc2c(F)c(-c3cccc(Cl)c3Cl)c(CCC#N)cc2c2c1cc([C@H]1C[C@H](Oc3ccc(C(F)(F)F)nc3)CN1C(=O)C1CC1)n2[C@H]1[C@H]2CN[C@@H]1C2 [Example 308]	≤ 100 nM	≤ 100 nM
Cc1nc2c(F)c(-c3cccc(Cl)c3Cl)c(CCC#N)cc2c2c1cc([C@H]1C[C@H](OCc3ccn(C(F)(F)F)n3)CN1C(=O)C1(C)CC1)n2[C@H]1[C@H]2CN[C@@H]1C2 [Example 310]	≤ 100 nM	≤ 100 nM
Cc1nc2c(F)c(-c3cccc(Cl)c3Cl)c(CCC#N)cc2c2c1cc([C@H]1C[C@H](OCc3cnn(C(F)(F)F)c3)CN1C(=O)C1CC1)n2[C@H]1[C@H]2CN[C@@H]1C2 [Example 311]	≤ 100 nM	≤ 100 nM
Cc1nc2c(F)c(-c3cccc(Cl)c3Cl)c(CCC#N)cc2c2c1cc([C@H]1C[C@H](OCc3ccnn3C(F)(F)F)CN1C(=O)C1CC1)n2[C@H]1[C@H]2CN[C@@H]1C2 [Example 312]	≤ 100 nM	≤ 100 nM
Cc1nc2c(F)c(-c3cccc(Cl)c3Cl)c(CCC#N)cc2c2c1cc([C@H]1C[C@H](OCc3ccnn3C(F)F)CN1C(=O)C1CC1)n2[C@H]1[C@H]2CN[C@@H]1C2 [Example 313]	≤ 100 nM	≤ 100 nM
Cc1nc2c(F)c(-c3cccc(Cl)c3Cl)c(CCC#N)cc2c2c1cc([C@H]1C[C@H](n3cccn3)CN1C(=O)C1CC1)n2[C@H]1[C@H]2CN[C@@H]1C2 [Example 314]	≤ 100 nM	≤ 100 nM
Cc1ccn([C@H]2C[C@H](c3cc4c(C)nc5c(F)c(-c6cccc(Cl)c6Cl)c(CCC#N)cc5c4n3[C@H]3[C@H]4CN[C@@H]3C4)N(C(=O)C3CC3)C2)n1 [Example 315]	≤ 100 nM	≤ 100 nM
Cc1nc2c(F)c(-c3cccc(Cl)c3Cl)c(CCC#N)cc2c2c1cc([C@H]1C[C@H](n3ccc(CC#N)n3)CN1C(=O)C1CC1)n2[C@H]1[C@H]2CN[C@@H]1C2 [Example 316]	≤ 100 nM	≤ 100 nM
Cc1nc2c(F)c(-c3cccc(Cl)c3Cl)c(CCC#N)cc2c2c1cc([C@H]1C[C@H](n3ccc(C#N)n3)CN1C(=O)C1CC1)n2[C@H]1[C@H]2CN[C@@H]1C2 [Example 317]	≤ 100 nM	≤ 100 nM
Cc1nc2c(F)c(-c3cccc(Cl)c3Cl)c(CCC#N)cc2c2c1cc([C@H]1C[C@H](n3ccc(C(F)F)n3)CN1C(=O)C1CC1)n2[C@H]1[C@H]2CN[C@@H]1C2 [Example 318]	≤ 100 nM	≤ 100 nM
Cc1nc2c(F)c(-c3cccc(Cl)c3Cl)c(CCC#N)cc2c2c1cc([C@H]1C[C@H](n3ccc(N)n3)CN1C(=O)C1CC1)n2[C@H]1[C@H]2CN[C@@H]1C2 [Example 319]	≤ 100 nM	≤ 100 nM
Cc1nc2c(F)c(-c3cccc(Cl)c3Cl)c(CCC#N)cc2c2c1cc([C@H]1C[C@H](N3C(=O)COC3=O)CN1C(=O)C1CC1)n2[C@H]1[C@H]2CN[C@@H]1C2 [Example 320]	≤ 100 nM	≤ 100 nM
Cc1nc2c(F)c(-c3cccc(Cl)c3Cl)c(CCC#N)cc2c2c1cc([C@H]1C[C@H](n3c(=O)n(C)c4ccccc43)CN1C(=O)C1CC1)n2[C@H]1[C@H]2CN[C@@H]1C2 [Example 321]	≤ 100 nM	100 to 1000 nM
Cc1nc2c(F)c(-c3cccc(Cl)c3Cl)c(CCC#N)cc2c2c1cc([C@H]1C[C@H](n3cc(CCC(=O)O)nn3)CN1C(=O)C1CC1)n2[C@H]1[C@H]2CN[C@@H]1C2 [Example 322]	≤ 100 nM	≤ 100 nM
Cc1nc2c(F)c(-c3cccc(Cl)c3Cl)c(CCC#N)cc2c2c1cc([C@H]1C[C@H](n3cc(CN4CCOCC4=O)nn3)CN1C(=O)C1CC1)n2[C@H]1[C@H]2CN[C@@H]1C2 [Example 323]	≤ 100 nM	≤ 100 nM
Cc1nc2c(F)c(-c3cccc(Cl)c3Cl)c(CCC#N)cc2c2c1cc([C@H]1C[C@H](n3cc(Cn4ccccc4=O)nn3)CN1C(=O)C1CC1)n2[C@H]1[C@H]2CN[C@@H]1C2 [Example 324]	≤ 100 nM	≤ 100 nM
Cc1nc2c(F)c(-c3cccc(Cl)c3Cl)c(CCC#N)cc2c2c1cc([C@H]1C[C@H](n3cc(C(C)N4CCOC4=O)nn3)CN1C(=O)C1CC1)n2[C@H]1[C@H]2CN[C@@H]1C2 (stereo partly shown) [Example 325]	≤ 100 nM	≤ 100 nM
Cc1nc2c(F)c(-c3cccc(Cl)c3Cl)c(CCC#N)cc2c2c1cc([C@H]1C[C@H](n3nnc(CO)c3C)CN1C(=O)C1CC1)n2[C@H]1[C@H]2CN[C@@H]1C2 [Example 326]	≤ 100 nM	≤ 100 nM
Cc1nnn([C@H]2C[C@H](c3cc4c(C)nc5c(F)c(-c6cccc(Cl)c6Cl)c(CCC#N)cc5c4n3[C@H]3[C@H]4CN[C@@H]3C4)N(C(=O)C3CC3)C2)c1CO [Example 327]	≤ 100 nM	≤ 100 nM
COc1ccnc(O[C@H]2C[C@H](c3cc4c(C)nc5c(F)c(-c6cccc(Cl)c6Cl)c(CCC#N)cc5c4n3[C@H]3[C@H]4CN[C@@H]3C4)N(C(=O)C3CC3)C2)c1 [Example 328]	≤ 100 nM	≤ 100 nM
Cc1nc2c(F)c(-c3cccc(Cl)c3Cl)c(CCC#N)cc2c2c1cc([C@H]1C[C@H](Oc3ccnc4c3CCO4)CN1C(=O)C1CC1)n2[C@H]1[C@H]2CN[C@@H]1C2 [Example 329]	≤ 100 nM	≤ 100 nM

Compound	IC50 (KRAS G12D)	IC50 (KRAS G12V)
Cc1csnc1C(C)O[C@H]1C[C@H](c2cc3c(C)nc4c(F)c(-c5cccc(Cl)c5Cl)c(CCC#N)cc4c3n2[C@H]2[C@H]3CN[C@@H]2C3)N(C(=O)C2CC2)C1 (stereo partly shown) [Example 330]	≤ 100 nM	≤ 100 nM
Cc1csnc1C(C)O[C@H]1C[C@H](c2cc3c(C(C)O)nc4c(F)c(-c5cccc(Cl)c5Cl)c(CCC#N)cc4c3n2[C@H]2[C@H]3CN[C@@H]2C3)N(C(=O)C2CC2)C1 (stereo partly shown) [Example 334]	≤ 100 nM	≤ 100 nM
Cc1cc(C(C)O[C@H]2C[C@H](c3cc4c(C(C)O)nc5c(F)c(-c6cccc(Cl)c6Cl)c(CCC#N)cc5c4n3[C@H]3[C@H]4CN[C@@H]3C4)N(C(=O)C3CC3)C2)ns1 (stereo partly shown) [Example 335]	≤ 100 nM	≤ 100 nM
Cc1nc2c(F)c(-c3cccc(Cl)c3Cl)c(CCC#N)cc2c2c1cc([C@H]1C[C@H](OC3CCC(O)CC3)CN1C(=O)C1CC1)n2[C@H]1[C@H]2CN[C@@H]1C2 (stereo partly shown) [Example 336]	≤ 100 nM	≤ 100 nM
Cc1nc2c(F)c(-c3cccc(Cl)c3Cl)c(CCC#N)cc2c2c1cc([C@H]1C[C@H](OC3CCc4ccccc43)CN1C(=O)C1CC1)n2[C@H]1[C@H]2CN[C@@H]1C2 (stereo partly shown) [Example 337]	≤ 100 nM	100 to 1000 nM
Cc1nc2c(F)c(-c3cccc(Cl)c3Cl)c(CCC#N)cc2c2c1cc([C@H]1C[C@H](OCC3(C#N)CC3)CN1C(=O)C1CC1)n2[C@H]1[C@H]2CN[C@@H]1C2 [Example 338]	≤ 100 nM	≤ 100 nM
Cc1nc2c(F)c(-c3cccc(Cl)c3Cl)c(CCC#N)cc2c2c1cc([C@H]1C[C@H](OCC3(C#N)CCC3)CN1C(=O)C1CC1)n2[C@H]1[C@H]2CN[C@@H]1C2 [Example 339]	≤ 100 nM	≤ 100 nM
Cc1nc2c(F)c(-c3cccc(Cl)c3Cl)c(CCC#N)cc2c2c1cc([C@H]1C[C@H](Oc3ccn(C(F)F)n3)CN1C(=O)C1CC1)n2[C@H]1[C@H]2CN[C@@H]1C2 [Example 340]	≤ 100 nM	≤ 100 nM
Cc1nc2c(F)c(-c3cccc(Cl)c3Cl)c(CCC#N)cc2c2c1cc([C@H]1C[C@H](Oc3nccs3)CN1C(=O)C1CC1)n2[C@H]1[C@H]2CN[C@@H]1C2 [Example 341]	≤ 100 nM	≤ 100 nM
Cc1nc2c(F)c(-c3cccc(Cl)c3Cl)c(CCC#N)cc2c2c1cc([C@H]1C[C@H](n3ccnn3)CN1C(=O)C1CC1)n2[C@H]1[C@H]2CN[C@@H]1C2 [Example 342]	≤ 100 nM	≤ 100 nM
Cc1cn([C@H]2C[C@H](c3cc4c(C)nc5c(F)c(-c6cccc(Cl)c6Cl)c(CCC#N)cc5c4n3[C@H]3[C@H]4CN[C@@H]3C4)N(C(=O)C3CC3)C2)nn1 [Example 343]	≤ 100 nM	≤ 100 nM
Cc1cnn([C@H]2C[C@H](c3cc4c(C)nc5c(F)c(-c6cccc(Cl)c6Cl)c(CCC#N)cc5c4n3[C@H]3[C@H]4CN[C@@H]3C4)N(C(=O)C3CC3)C2)n1 [Example 344]	≤ 100 nM	≤ 100 nM
Cc1nc2c(F)c(-c3cccc(Cl)c3Cl)c(CCC#N)cc2c2c1cc([C@H]1C[C@H](n3cc(C#N)nn3)CN1C(=O)C1CC1)n2[C@H]1[C@H]2CN[C@@H]1C2 [Example 345]	≤ 100 nM	≤ 100 nM
Cc1nc2c(F)c(-c3cccc(Cl)c3Cl)c(CCC#N)cc2c2c1cc([C@H]1C[C@H](n3ncc(C#N)n3)CN1C(=O)C1CC1)n2[C@H]1[C@H]2CN[C@@H]1C2 [Example 346]	≤ 100 nM	≤ 100 nM
Cc1nc2c(F)c(-c3cccc(Cl)c3Cl)c(CCC#N)cc2c2c1cc([C@H]1C[C@H](n3cnc(C4CCC4)n3)CN1C(=O)C1CC1)n2[C@H]1[C@H]2CN[C@@H]1C2 [Example 347]	≤ 100 nM	≤ 100 nM
COC(=O)c1ncn([C@H]2C[C@H](c3cc4c(C)nc5c(F)c(-c6cccc(Cl)c6Cl)c(CCC#N)cc5c4n3[C@H]3[C@H]4CN[C@@H]3C4)N(C(=O)C3CC3)C2)n1 [Example 348]	≤ 100 nM	≤ 100 nM
Cc1nc2c(F)c(-c3cccc(Cl)c3Cl)c(CCC#N)cc2c2c1cc([C@H]1C[C@H](n3cnc(-c4ccccc4)n3)CN1C(=O)C1CC1)n2[C@H]1[C@H]2CN[C@@H]1C2 [Example 349]	≤ 100 nM	≤ 100 nM
Cc1nc(C)n([C@H]2C[C@H](c3cc4c(C)nc5c(F)c(-c6cccc(Cl)c6Cl)c(CCC#N)cc5c4n3[C@H]3[C@H]4CN[C@@H]3C4)N(C(=O)C3CC3)C2)n1 [Example 350]	≤ 100 nM	≤ 100 nM
Cc1nc2c(F)c(-c3cccc(Cl)c3Cl)c(CCC#N)cc2c2c1cc([C@H]1C[C@H](n3nc(CC#N)nc3C)CN1C(=O)C1CC1)n2[C@H]1[C@H]2CN[C@@H]1C2 [Example 351]	≤ 100 nM	≤ 100 nM
COc1cnn([C@H]2C[C@H](c3cc4c(C)nc5c(F)c(-c6cccc(Cl)c6Cl)c(CCC#N)cc5c4n3[C@H]3[C@H]4CN[C@@H]3C4)N(C(=O)C3CC3)C2)c1 [Example 352]	≤ 100 nM	≤ 100 nM

From US20240390340A1 (INCYTE CORPORATION, priority 2023, published 2024)
